According to ChEMBL document CHEMBL1201862, “PubChem BioAssay data set” (2004):
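Five concentrations, 48 hours, 96-well plates. GI50 marks 50% less growth.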 The source made the active and inactive calls. No stated cut-off is given here; in the data, active = GI50 up to about 1.1 µM and inactive = higher.

Legend:
Assay in all cases: DTP human tumour cell line panel, 48 h
SK-MEL-5 = system: SK-MEL-5
HCT-15 = system: HCT-15
HT-29 = system: HT-29
COLO 205 = system: COLO 205
U-251 = system: U-251
PC-3 = system: PC-3
SF-295 = system: SF-295
NCI-H522 = system: NCI-H522
SN12C = system: SN12C
ACHN = system: ACHN
KM12 = system: KM12
CAKI-1 = system: CAKI-1
SW-620 = system: SW-620
BT-549 = system: BT-549
OVCAR-8 = system: OVCAR-8
NCI-H226 = system: NCI-H226
M14 = system: M14
A549 = system: A549
SNB-75 = system: SNB-75
UACC-62 = system: UACC-62

Compound	GI50 (SK-MEL-5)	GI50 (HCT-15)	GI50 (HT-29)	GI50 (COLO 205)	GI50 (U-251)	GI50 (PC-3)	GI50 (SF-295)	GI50 (NCI-H522)	GI50 (SN12C)	GI50 (ACHN)	GI50 (KM12)	GI50 (CAKI-1)	GI50 (SW-620)	GI50 (BT-549)	GI50 (OVCAR-8)	GI50 (NCI-H226)	GI50 (M14)	GI50 (A549)	GI50 (SNB-75)	GI50 (UACC-62)
CC(=O)Oc1cc2c(n(C)c1=O)CCC2	> 100 µM (inactive)	33.6 µM	> 100 µM (inactive)	> 100 µM (inactive)	> 100 µM (inactive)	> 100 µM (inactive)	> 100 µM (inactive)	> 10 µM (inactive)	> 100 µM (inactive)	> 100 µM (inactive)	> 100 µM (inactive)	> 100 µM (inactive)	> 100 µM (inactive)	> 100 µM (inactive)	94.4 µM (inactive)	> 100 µM (inactive)	> 100 µM (inactive)	> 100 µM (inactive)	> 100 µM (inactive)	
Oc1ccc(Cl)cc1C1=NC(NCNC2=NC(c3ccccc3)CC(c3cc(Cl)ccc3O)=N2)=NC(c2ccccc2)C1 (stereo not given)	> 100 µM (inactive)	43.4 µM	70.8 µM (inactive)	> 100 µM (inactive)	> 100 µM (inactive)	> 100 µM (inactive)	79.1 µM (inactive)			43.6 µM (inactive)	> 100 µM (inactive)	94.2 µM (inactive)	> 100 µM (inactive)	> 100 µM (inactive)	> 100 µM (inactive)	> 100 µM (inactive)	> 100 µM (inactive)	> 100 µM (inactive)	> 100 µM (inactive)	> 100 µM (inactive)
OC1CC(O)c2c(Cl)sc(Cl)c21 (stereo not given)	47 µM (inactive)	60.5 µM	17.5 µM (inactive)	18.2 µM (inactive)	15.5 µM (inactive)		8.41 µM (inactive)	23 µM (inactive)	46.3 µM (inactive)	33.2 µM (inactive)	27 µM (inactive)	31.5 µM (inactive)	44.2 µM (inactive)	34.6 µM (inactive)	41.5 µM (inactive)	26.3 µM (inactive)	35.2 µM (inactive)	11.7 µM (inactive)	7.67 µM (inactive)	42.8 µM (inactive)
CCOC(=O)NN(C(=O)OCC)C(=C(C1=CCCCC1)N1CCOCC1)N(NC(=O)OCC)C(=O)OCC		> 100 µM	> 100 µM (inactive)	> 100 µM (inactive)	> 100 µM (inactive)	> 100 µM (inactive)	> 100 µM (inactive)		> 100 µM (inactive)	> 100 µM (inactive)	> 100 µM (inactive)	> 100 µM (inactive)	> 100 µM (inactive)	> 100 µM (inactive)	> 100 µM (inactive)	> 100 µM (inactive)	> 100 µM (inactive)	> 100 µM (inactive)	> 100 µM (inactive)	> 100 µM (inactive)
Brc1ccc2c(c1)-c1nc3nc4c(cc3cc1CC2)CCc1ccc(Br)cc1-4	> 100 µM (inactive)	> 100 µM		> 100 µM (inactive)	> 100 µM (inactive)	> 100 µM (inactive)	> 100 µM (inactive)	> 100 µM (inactive)	> 100 µM (inactive)	> 100 µM (inactive)	62.7 µM (inactive)	> 100 µM (inactive)	> 100 µM (inactive)	> 100 µM (inactive)	> 100 µM (inactive)	> 100 µM (inactive)	> 100 µM (inactive)	> 100 µM (inactive)	> 100 µM (inactive)	
Cc1cc2cc3c(Cl)c(CCCl)c(C)nc3cc2c(Cl)c1CCCl	12.6 µM (inactive)	24.9 µM	18.5 µM (inactive)	16.6 µM (inactive)	23.5 µM (inactive)	14.4 µM (inactive)	17.2 µM (inactive)	19.2 µM (inactive)		20.9 µM (inactive)	17.9 µM (inactive)		24.8 µM (inactive)	19.9 µM (inactive)	24.1 µM (inactive)	3.73 µM (inactive)		17.8 µM (inactive)	17 µM (inactive)	15.6 µM (inactive)
COC(=O)Cc1c([C@@H]2Nc3ccccc3[C@H]2CC(=O)OC)[nH]c2ccccc12	7.98 µM (inactive)	5.02 µM	48.5 µM (inactive)	16 µM (inactive)	20.4 µM (inactive)	11.1 µM (inactive)	22.8 µM (inactive)		30.3 µM (inactive)	36.6 µM (inactive)		47.2 µM (inactive)	46.8 µM (inactive)	18.5 µM (inactive)	33.7 µM (inactive)	71.8 µM (inactive)		31.7 µM (inactive)	36.9 µM (inactive)	13.9 µM (inactive)
NC(=O)NNCc1ccccc1	> 100 µM (inactive)	> 100 µM	> 100 µM (inactive)	> 100 µM (inactive)	> 100 µM (inactive)	> 100 µM (inactive)	> 100 µM (inactive)	> 100 µM (inactive)	> 100 µM (inactive)	> 100 µM (inactive)	> 100 µM (inactive)	> 100 µM (inactive)	> 100 µM (inactive)	> 100 µM (inactive)	> 100 µM (inactive)	> 100 µM (inactive)	> 100 µM (inactive)	> 100 µM (inactive)		> 100 µM (inactive)
